# According to publication PMC4990076 (MedChemComm, 2016):
# Tested on: Ras localization
# Test: not given
# Details: at micromolar concentrations; cited from earlier work
row,Structure (SMILES),Ras mislocalization in cells
1,CCCCCCCCn1cc(CC(N)=O)c2cc(-c3cccc(C)c3)ccc21 [Cysmethynil],causes Ras mislocalization

# Target: human Icmt (hIcmt) (Homo sapiens, UniProt O60725)
# Test: in vitro vapor diffusion assay for hIcmt activity
# Assay type: biochemical
# Details: not given
# Sequence of human Icmt (hIcmt) (O60725 whole entry, the tested form may be a part): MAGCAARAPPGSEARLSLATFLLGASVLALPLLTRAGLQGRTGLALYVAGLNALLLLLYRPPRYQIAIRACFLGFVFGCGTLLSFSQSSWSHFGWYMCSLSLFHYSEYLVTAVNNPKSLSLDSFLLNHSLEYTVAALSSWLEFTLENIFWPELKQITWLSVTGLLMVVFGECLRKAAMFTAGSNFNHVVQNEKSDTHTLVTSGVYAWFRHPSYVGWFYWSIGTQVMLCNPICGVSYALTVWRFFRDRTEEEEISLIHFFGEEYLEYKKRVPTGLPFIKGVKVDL
row,Structure (SMILES),hIcmt inhibitory activity (in words)
1,OC(c1ccccc1)(c1cccs1)C1CCOCC1 (centres unmarked) [Compound 9],inactive
2,c1csc(C(c2ccc3ccccc3c2)C2CCNCC2)c1 (centres unmarked) [Compound 11],not active
3,CN1CCC(C(c2ccc3ccccc3c2)c2cccs2)CC1 (centres unmarked) [Compound 12],not active

# More lines, now with the values ahead:
row,hIcmt inhibitory activity (in words),Structure (SMILES)
1,inactive,c1ccc(C(=C2CCOCC2)c2ccc3ccccc3c2)cc1 [Compound 6]
2,abolished activity,c1ccc2cc(CC3CCOCC3)ccc2c1 [Compound 7]
3,abolished activity,O=C(c1ccc2ccccc2c1)C1CCOCC1 [Compound 8]
4,inactive,c1ccc(C(=C2CCOCC2)c2cccs2)cc1 [Compound 10]
